According to patent publication US20160374352A1, “BOTANICAL ANTIMICROBIAL COMPOSITIONS” (The Trustees of Columbia University in the City of, priority 2015, published 2016):

Key:
[1] = oral rinses of WO/2014/092999; cited from earlier work
S. aureus = assay: Method B: surface disinfectant base solution diluted 1:20, 1 minute (Table 8); assay type: cell-based; settings: stock solution in surface disinfectant base diluted 1:20, 1 minute (Method B)
P. aeruginosa = assay: Example 9: phenoxyethanol, PCMX, pine oil compositions diluted 1:20, albumin, 15 seconds (Table 3); assay type: cell-based; settings: PXE stock 10.0% w/w, 0.5% w/w in 1 to 20 dilution
Description: Phenoxyethanol, PCMX and pine oil were added to 50% isopropanol in the amounts described in table 3 below (water was added to bring the total weight % of the composition 100%). The compositions described by table 3 were prepared and diluted 1:20 with water and tested using the following method. P. aeruginosa was used as the test organism (10^8 cfu/ml). 0.1 ml culture was added to 0.1 ml of a 3.0% albumin solution, mixed for 5 seconds and left for 2 minutes at room temperature. 0.8 ml of test sample was added and the tube was vortexed for 15 seconds. Serial dilutions were made with Drug Neutralizing Fluid and aliquots were plated on Trypticase soy broth agar plates. The plates were incubated for 24-48 hours and colony counts were then determined.

Row | Compound | synergistic activity with thymol and vanilla extract [1] | further results
1 | [H]/N=C(\N/C(=N/[H])NCCCCCCNC(=N)NC(=N)Nc1ccc(Cl)cc1)Nc1ccc(Cl)cc1 [chlorhexidine] | did not show significant synergistic activity | 
2 | Cc1cc(O)cc(C)c1Cl [PCMX] |  | log reduction from control growth (S. aureus): 0.5 log
3 | polyhexamethylene biguanide [PHMB] | synergistic activity | 
4 | OCCOc1ccccc1 [PXE] |  | Log reduction from control (P. aeruginosa): 0.6 log
